Test results: US11840686B2, “Modulation of prekallikrein (PKK) expression” (Ionis Pharmaceuticals, Inc., priority 2013, dated 2023)
Strand notation (5' to 3'): a small letter for the sugar, then the base; units joined by * are phosphorothioate-linked, units joined directly phosphodiester-linked; [ ] holds rarer units or linkages, { } end groups; capitals alone tell only the bases. e = 2'-O-(2-methoxyethyl) (MOE); k = constrained ethyl (cEt); [5mC] = 5-methylcytosine; d = 2'-deoxy (DNA)

System: human PKK mRNA
Assay: Antisense inhibition of human PKK mRNA in HepaRG cells, 1,000 nM, MOE/deoxy/cEt oligonucleotides (Example 3)
Type: cell-based
Conditions: HepaRG cells, electroporation with 1,000 nM antisense oligonucleotide, approximately 24 hours, primer probe set RTS3454, relative to untreated control cells
Method in brief: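 Readout is percent PKK mRNA reduction against untreated controls, by real-time PCR (RTS3454) adjusted for total RNA via RIBOGREEN. Oligonucleotides, phosphorothioate gapmers of 16 nucleosides with cEt, MOE and deoxy sugars, were delivered at 1,000 nM by electroporation to 20,000 HepaRG cells/well for roughly 24 h.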

| Substance | % inhibition (experiment of Table 23) [%] | % inhibition (experiment of Table 24) [%] |
| --- | --- | --- |
| 547995 (antisense eG*eT*kG*dT*d[5mC]*d[5mC]*d[5mC]*dA*dT*dA*d[5mC]*dG*d[5mC]*kA*kA*eT) [compound 547995] | 64 |  |
| 547996 (antisense eT*eG*kT*dG*dT*d[5mC]*d[5mC]*d[5mC]*dA*dT*dA*d[5mC]*dG*k[5mC]*kA*eA) [compound 547996] | 65 |  |
| 547999 (antisense e[5mC]*e[5mC]*kT*dT*dG*dT*dG*dT*d[5mC]*d[5mC]*d[5mC]*dA*dT*kA*k[5mC]*eG) [compound 547999] |  | 50 |
| 548000 (antisense e[5mC]*e[5mC]*k[5mC]*dT*dT*dG*dT*dG*dT*d[5mC]*d[5mC]*d[5mC]*dA*kT*kA*e[5mC]) [compound 548000] |  | 54 |
| 548001 (antisense eA*e[5mC]*k[5mC]*dA*dG*dA*dG*d[5mC]*dT*d[5mC]*d[5mC]*d[5mC]*dT*kT*kG*eT) [compound 548001] |  | 64 |
| 548002 (antisense eA*eA*k[5mC]*d[5mC]*dA*dG*dA*dG*d[5mC]*dT*d[5mC]*d[5mC]*d[5mC]*kT*kT*eG) [compound 548002] |  | 56 |
| 548003 (eT*eA*kA*d[5mC]*d[5mC]*dA*dG*dA*dG*d[5mC]*dT*d[5mC]*d[5mC]*k[5mC]*kT*eT; antisense) [compound 548003] |  | 66 |
| 548006 (e[5mC]*eA*kA*dA*dG*dA*dG*dT*dA*dA*d[5mC]*d[5mC]*dA*kG*kA*eG; antisense) [compound 548006] |  | 54 |
| 548007 (e[5mC]*eT*k[5mC]*dA*dA*dA*dG*dA*dG*dT*dA*dA*d[5mC]*k[5mC]*kA*eG; antisense) [compound 548007] |  | 70 |
| 548008 (eT*e[5mC]*kT*d[5mC]*dA*dA*dA*dG*dA*dG*dT*dA*dA*k[5mC]*k[5mC]*eA; antisense) [compound 548008] |  | 71 |
| 548009 (eG*eT*kT*dA*d[5mC]*dA*d[5mC]*dA*dA*dT*d[5mC]*dT*d[5mC]*kA*kA*eA; antisense) [compound 548009] |  | 47 |
| 548011 (e[5mC]*e[5mC]*kA*dG*dT*dG*dT*dT*dA*d[5mC]*dA*d[5mC]*dA*kA*kT*e[5mC]; antisense) [compound 548011] |  | 14 |
| 548012 (eT*e[5mC]*k[5mC]*d[5mC]*d[5mC]*dA*dG*dT*dG*dT*dT*dA*d[5mC]*kA*k[5mC]*eA; antisense) [compound 548012] |  | 3 |
| 548013 (eG*eT*k[5mC]*d[5mC]*d[5mC]*d[5mC]*dA*dG*dT*dG*dT*dT*dA*k[5mC]*kA*e[5mC]; antisense) [compound 548013] |  | 37 |
| 548014 (eT*eG*kT*d[5mC]*d[5mC]*d[5mC]*d[5mC]*dA*dG*dT*dG*dT*dT*kA*k[5mC]*eA; antisense) [compound 548014] |  | 31 |
| 548015 (eT*eT*kG*dT*d[5mC]*d[5mC]*d[5mC]*d[5mC]*dA*dG*dT*dG*dT*kT*kA*e[5mC]; antisense) [compound 548015] |  | 50 |
| 548016 (eA*eA*kG*dA*dG*dT*dT*dT*dG*dT*dT*d[5mC]*d[5mC]*kT*k[5mC]*e[5mC]; antisense) [compound 548016] |  | 55 |
| 548017 (e[5mC]*eA*kA*dG*dA*dA*dG*dA*dG*dT*dT*dT*dG*kT*kT*e[5mC]; antisense) [compound 548017] |  | 3 |
| 548018 (e[5mC]*e[5mC]*kA*dA*dG*dA*dA*dG*dA*dG*dT*dT*dT*kG*kT*eT; antisense) [compound 548018] |  | 22 |
| 548019 (e[5mC]*e[5mC]*k[5mC]*d[5mC]*dA*dA*dG*dA*dA*dG*dA*dG*dT*kT*kT*eG; antisense) [compound 548019] |  | 24 |
| 548020 (eT*e[5mC]*k[5mC]*d[5mC]*d[5mC]*dA*dA*dG*dA*dA*dG*dA*dG*kT*kT*eT; antisense) [compound 548020] |  | 76 |
| 548021 (e[5mC]*eA*k[5mC]*dT*d[5mC]*dT*d[5mC]*d[5mC]*d[5mC]*d[5mC]*dA*dA*dG*kA*kA*eG; antisense) [compound 548021] |  | 0 |
| 548022 (e[5mC]*e[5mC]*kA*d[5mC]*dT*d[5mC]*dT*d[5mC]*d[5mC]*d[5mC]*d[5mC]*dA*dA*kG*kA*eA; antisense) [compound 548022] |  | 69 |
| 548023 (eG*e[5mC]*kT*dT*d[5mC]*dA*d[5mC]*d[5mC]*dT*dG*d[5mC]*dA*dG*kG*k[5mC]*eT; antisense) [compound 548023] |  | 58 |
| 548025 (eT*eG*kA*dG*d[5mC]*dT*dG*dT*d[5mC]*dA*dG*d[5mC]*dT*kT*k[5mC]*eA; antisense) [compound 548025] |  | 66 |
| 548026 (eG*eT*k[5mC]*d[5mC]*dT*dA*dT*dG*dA*dG*dT*dG*dA*k[5mC]*k[5mC]*e[5mC]; antisense) [compound 548026] |  | 52 |
| 548027 (eG*eT*kG*dT*d[5mC]*d[5mC]*dT*dA*dT*dG*dA*dG*dT*kG*kA*e[5mC]; antisense) [compound 548027] |  | 18 |
| 548028 (eG*eG*kT*dG*dT*d[5mC]*d[5mC]*dT*dA*dT*dG*dA*dG*kT*kG*eA; antisense) [compound 548028] |  | 38 |

| Substance | % inhibition (experiment of Table 23) [%] | % inhibition (experiment of Table 24) [%] |
| --- | --- | --- |
| 548029 (eT*eG*kG*dT*dG*dT*d[5mC]*d[5mC]*dT*dA*dT*dG*dA*kG*kT*eG; antisense) [compound 548029] |  | 12 |
| 548030 (e[5mC]*eT*kG*dG*dT*dG*dT*d[5mC]*d[5mC]*dT*dA*dT*dG*kA*kG*eT; antisense) [compound 548030] |  | 52 |
| 548031 (eG*eA*kT*dG*d[5mC]*dG*d[5mC]*d[5mC]*dA*dA*dA*d[5mC]*dA*kT*k[5mC]*e[5mC]; antisense) [compound 548031] |  | 73 |
| 548032 (eA*eG*kA*dT*dG*d[5mC]*dG*d[5mC]*d[5mC]*dA*dA*dA*d[5mC]*kA*kT*e[5mC]; antisense) [compound 548032] |  | 51 |
| 548034 (eA*eT*kA*dG*dA*dT*dG*d[5mC]*dG*d[5mC]*d[5mC]*dA*dA*kA*k[5mC]*eA; antisense) [compound 548034] |  | 31 |
| 548035 (e[5mC]*eA*k[5mC]*dT*dA*dT*dA*dG*dA*dT*dG*d[5mC]*dG*k[5mC]*k[5mC]*eA; antisense) [compound 548035] |  | 44 |
| 548036 (e[5mC]*e[5mC]*kA*d[5mC]*dT*dA*dT*dA*dG*dA*dT*dG*d[5mC]*kG*k[5mC]*e[5mC]; antisense) [compound 548036] |  | 74 |
| 548037 (eA*eA*kT*dG*dT*d[5mC]*dT*dG*dA*d[5mC]*dA*dG*dA*kT*kT*eT; antisense) [compound 548037] |  | 70 |
| 548038 (eT*eA*kA*dT*dG*dT*d[5mC]*dT*dG*dA*d[5mC]*dA*dG*kA*kT*eT; antisense) [compound 548038] |  | 67 |
| 548039 (eG*eA*kA*dA*dG*dG*dT*dG*dT*dA*dT*d[5mC]*dT*kT*kT*eT; antisense) [compound 548039] |  | 29 |
| 548040 (eG*eT*kG*dA*dG*dA*dA*dA*dG*dG*dT*dG*dT*kA*kT*e[5mC]; antisense) [compound 548040] |  | 62 |
| 548041 (eT*eG*kT*dG*dA*dG*dA*dA*dA*dG*dG*dT*dG*kT*kA*eT; antisense) [compound 548041] |  | 64 |
| 548042 (eT*eT*kT*dG*dT*dG*dA*dG*dA*dA*dA*dG*dG*kT*kG*eT; antisense) [compound 548042] |  | 63 |
| 548044 (eT*eG*kG*dT*dG*dA*dA*dT*dA*dA*dT*dA*dA*kT*k[5mC]*eT; antisense) [compound 548044] |  | 12 |
| 548045 (eT*eT*kA*dT*dA*dG*dT*dT*dT*dT*dG*dG*dT*kG*kA*eA; antisense) [compound 548045] |  | 0 |
| 548049 (eG*e[5mC]*kG*dA*dT*dA*dT*d[5mC]*dA*dT*dG*dA*dT*kT*k[5mC]*e[5mC]; antisense) [compound 548049] |  | 62 |
| 548050 (eA*eG*kG*d[5mC]*dG*dA*dT*dA*dT*d[5mC]*dA*dT*dG*kA*kT*eT; antisense) [compound 548050] |  | 37 |
| 548051 (eA*eA*kG*dG*d[5mC]*dG*dA*dT*dA*dT*d[5mC]*dA*dT*kG*kA*eT; antisense) [compound 548051] |  | 61 |
| 548052 (e[5mC]*eA*kA*dA*dG*dG*dA*dG*d[5mC]*d[5mC]*dT*dG*dG*kA*kG*eT; antisense) [compound 548052] |  | 43 |
| 548053 (eA*eT*kT*d[5mC]*dA*dA*dA*dG*dG*dA*dG*d[5mC]*d[5mC]*kT*kG*eG; antisense) [compound 548053] |  | 36 |
| 548054 (eA*eA*kT*dT*d[5mC]*dA*dA*dA*dG*dG*dA*dG*d[5mC]*k[5mC]*kT*eG; antisense) [compound 548054] |  | 45 |
| 548056 (eG*eT*kG*dT*dA*dA*dT*dT*d[5mC]*dA*dA*dA*dG*kG*kA*eG; antisense) [compound 548056] |  | 40 |
| 548057 (e[5mC]*eA*kT*dA*dT*dT*dG*dG*dT*dT*dT*dT*dT*kG*kG*eA; antisense) [compound 548057] |  | 49 |
| 548058 (eG*e[5mC]*kA*dT*dA*dT*dT*dG*dG*dT*dT*dT*dT*kT*kG*eG; antisense) [compound 548058] |  | 71 |
| 548059 (eT*eA*kG*dG*d[5mC]*dA*dT*dA*dT*dT*dG*dG*dT*kT*kT*eT; antisense) [compound 548059] |  | 50 |
| 548060 (e[5mC]*eT*kT*dG*dT*dG*dT*d[5mC]*dA*d[5mC]*d[5mC]*dT*dT*kT*kG*eG; antisense) [compound 548060] |  | 76 |
| 548062 (eA*eT*kA*dA*dA*dT*dT*dG*dT*dG*d[5mC]*dT*dT*kG*kT*eG; antisense) [compound 548062] |  | 19 |
